Experimental data taken from US20240165243A1, “EGFR DEGRADERS AND METHODS OF USE” (BeiGene Switzerland GmbH, priority 2021, published 2024).

Test system: EGFR (Del19/T790M/C797S)
Test: Cell degradation HTRF assay, H1975-clone #28 cells
Type: cell-based
Conditions: H1975-clone #28 (Del19/T790M/C797S) cells, 16 h treatment; for DC50: HTRF, read-out: H1975-clone#28 DTC DC50; for H1975-clone#28 DTC Dmax (%): maximum percentage of degradation
Description: Cell Degradation of Example 124-189
H1975-#28 and H1975-#25 cells are treated with compounds diluted in 0.2% DMSO cell culture medium on day 2, incubate for 16 h, 37° C., 5% CO2. the final concentration of compounds in all assay is start with 10 uM, 5-fold dilution, total 8 doses were included.
After 16 h treatment, add HTRF lysis buffer to each well; seal the plate and incubate 1 hour at room temperature on a plate shaker; Once the cells are lysed, 16 μL of cell lysate are transferred to a PE 384-well HTRF detection plate; 4 μL of pre-mixed HTRF antibodies are added to each well; Cover the plate with a plate sealer, spin 1000 rpm for 1 min, Incubate overnight at room temperature; Read on BMG PheraStar with HTRF protocol (337 nm-665 nm-620 nm).
The inhibition (degradation) percentage of the compound was calculated by the following equation:
Inhibition percentage of Compound=100−100×(Signal−low control)/(High control−low control), wherein signal=each test compound group.
High control=Cell group with added DMSO and without compound, indicating microplate readings without EGFR degradation;
Dmax is the maximum percentage of inhibition (degradation).
The IC50 (DC50) value of a compound can be obtained by fitting the following equation
Y=Bottom+(TOP−Bottom)/(1+((IC50/X)^hillslope))
Wherein, X and Y are known values, and IC50, Hillslope, Top and Bottom are the parameters obtained by fitting with software. Y is the inhibition percentage (calculated from the equation), X is the concentration of the compound; IC50 is the concentration of the compound when the 50% inhibition is reached. The smaller the IC50 value is, the stronger the inhibitory ability of the compound is. Vice versa, the higher the IC50 value is, the weaker the ability the inhibitory ability of the compound is; Hillslope represents the slope of the fitted curve, generally around 1*; Bottom represents the minimum value of the curve obtained by data fitting, which is generally 0%±20%; Top represents the maximum value of the curve obtained by data fitting, which is generally 100%±20%. The experimental data were fitted by calculating and analyzing with Dotmatics data analysis software. When Dmax<50%, DC50 will be automatically assigned as larger than […].

| Compound | DC50 | H1975-clone#28 DTC Dmax (%) |
| --- | --- | --- |
| COc1cc(N2CCC(N3CCN(C(=O)C4CN(c5cccc6c5n(C)c(=O)n6C5CCC(=O)NC5=O)C4)CC3)CC2)c(C)cc1Nc1ncc(Br)c(Nc2cnc3ccccc3c2P(C)(C)=O)n1 (stereo not shown) [Example 179, 3-(4-(3-(4-(1-(4-((5-bromo-4-((4-(dimethylphosphoryl)quinolin-3-yl)amino)pyrimidin-2-yl)amino)-5-methoxy-2-methylphenyl)piperidin-4-yl)piperazine-1-carbonyl)azetidin-1-yl)-3-methyl-2-oxo-2,3-dihydro-1H-benzo[d]imidazol-1-yl)piperidine-2,6-dione] | 2.6 nM | 54% |
| CCOc1cc(N2CCC(N3CCN(CCc4c(F)ccc5c4n(C)c(=O)n5C4CCC(=O)NC4=O)CC3)CC2)c(CC)cc1Nc1ncc(Br)c(Nc2cnc3ccccc3c2P(C)(C)=O)n1 (stereo not shown) [Example 137, 3-(4-(2-(4-(1-(4-((5-bromo-4-((4-(dimethylphosphoryl)quinolin-3-yl)amino)pyrimidin-2-yl)amino)-5-ethoxy-2-ethylphenyl)piperidin-4-yl)piperazin-1-yl)ethyl)-5-fluoro-3-methyl-2-oxo-2,3-dihydro-1H-benzo[d]imidazol-1-yl) piperidine-2,6-dione] | 2.1 nM | 86% |
| CCc1cc(Nc2ncc(Br)c(Nc3cnc4ccccc4c3P(C)(C)=O)n2)c(OC)cc1N1CCC(N2CCN([C@H]3C[C@H](c4cc(F)c(C5CCC(=O)NC5=O)c(F)c4)C3)CC2)CC1 (stereo partly shown) [Example 184, 3-(4-((1r,3r)-3-(4-(1-(4-((5-bromo-4-((4-(dimethylphosphoryl)quinolin-3-yl)amino)pyrimidin-2-yl)amino)-2-ethyl-5-methoxyphenyl)piperidin-4-yl)piperazin-1-yl)cyclobutyl)-2,6-difluorophenyl)piperidine-2,6-dione] | 1.5 nM | 81% |
| CCc1cc(Nc2ncc(Br)c(Nc3cnc4ccccc4c3P(C)(C)=O)n2)c(OC)cc1N1CCC(N2CCN(C(=O)CN(C)c3cc(F)c(C4CCC(=O)NC4=O)c(F)c3)CC2)CC1 (stereo not shown) [Example 189, 3-(4-((2-(4-(1-(4-((5-bromo-4-((4-(dimethylphosphoryl)quinolin-3-yl)amino)pyrimidin-2-yl)amino)-2-ethyl-5-methoxyphenyl)piperidin-4-yl)piperazin-1-yl)-2-oxoethyl)(methyl)amino)-2,6-difluorophenyl)piperidine-2,6-dione] | 2.4 nM | 77% |
| CCc1cc(Nc2ncc(Br)c(Nc3cnc4cc(F)ccc4c3P(C)(C)=O)n2)c(OC)cc1N1CCC(N2CCN(CCc3cc(F)c4c(c3)oc(=O)n4[C@H]3CCC(=O)NC3=O)CC2)CC1 [Example 151, (S)-3-(6-(2-(4-(1-(4-((5-bromo-4-((4-(dimethylphosphoryl)-7-fluoroquinolin-3-yl)amino)pyrimidin-2-yl)amino)-2-ethyl-5-methoxyphenyl)piperidin-4-yl)piperazin-1-yl)ethyl)-4-fluoro-2-oxobenzo[d]oxazol-3(2H)-yl)piperidine-2,6-dione] | 1.1 nM | 79% |
| CCc1cc(Nc2ncc(Br)c(Nc3cnc4c(F)cccc4c3P(C)(C)=O)n2)c(OC)cc1N1CCC(N2CCN(CCc3cc(F)c(C4CCC(=O)NC4=O)c(F)c3)CC2)CC1 (stereo not shown) [Example 181, 3-(4-(2-(4-(1-(4-((5-bromo-4-((4-(dimethylphosphoryl)-8-fluoroquinolin-3-yl)amino)pyrimidin-2-yl)amino)-2-ethyl-5-methoxyphenyl)piperidin-4-yl)piperazin-1-yl)ethyl)-2,6-difluorophenyl)piperidine-2,6-dione] | 4.2 nM | 82% |
| CCc1cc(Nc2ncc(Br)c(Nc3cnc4ccccc4c3P(C)(C)=O)n2)c(OC)cc1N1CCC(N2CCN(C(=O)C3CCN(c4cc(F)c(C5CCC(=O)NC5=O)c(F)c4)CC3)CC2)CC1 (stereo not shown) [Example 185, 3-(4-(4-(4-(1-(4-((5-bromo-4-((4-(dimethylphosphoryl)quinolin-3-yl)amino)pyrimidin-2-yl)amino)-2-ethyl-5-methoxyphenyl)piperidin-4-yl)piperazine-1-carbonyl)piperidin-1-yl)-2,6-difluorophenyl)piperidine-2,6-dione] | 1.2 nM | 71% |
| CCc1cc(Nc2ncc(Br)c(Nc3cnc4cc(F)ccc4c3P(C)(C)=O)n2)c(OC)cc1N1CCC(N2CCN(CCc3ccc4c(c3)oc(=O)n4C3CCC(=O)NC3=O)CC2)CC1 (stereo not shown) [Example 134, 3-(6-(2-(4-(1-(4-((5-bromo-4-((4-(dimethylphosphoryl)-7-fluoroquinolin-3-yl)amino)pyrimidin-2-yl)amino)-2-ethyl-5-methoxyphenyl)piperidin-4-yl)piperazin-1-yl)ethyl)-2-oxobenzo[d]oxazol-3(2H)-yl)piperidine-2,6-dione] | 0.8 nM | 79% |
| CCc1cc(Nc2ncc(Br)c(Nc3cnc4ccccc4c3P(C)(C)=O)n2)c(OC)cc1N1CCC(N2CCN(C(=O)C3CC4(C3)CN(c3cc(F)c(C5CCC(=O)NC5=O)c(F)c3)C4)CC2)CC1 (stereo not shown) [Example 178, 3-(4-(6-(4-(1-(4-((5-bromo-4-((4-(dimethylphosphoryl)quinolin-3-yl)amino)pyrimidin-2-yl)amino)-2-ethyl-5-methoxyphenyl)piperidin-4-yl)piperazine-1-carbonyl)-2-azaspiro[3.3]heptan-2-yl)-2,6-difluorophenyl)piperidine-2,6-dione] | 2.6 nM | 67% |
| CCOc1cc(N2CCC(N3CCN(CCc4ccc5c(c4)oc(=O)n5C4CCC(=O)NC4=O)CC3)CC2)c(CC)cc1Nc1ncc(Br)c(Nc2cnc3ccccc3c2P(C)(C)=O)n1 (stereo not shown) [Example 139, 3-(6-(2-(4-(1-(4-((5-bromo-4-((4-(dimethylphosphoryl)quinolin-3-yl)amino)pyrimidin-2-yl)amino)-5-ethoxy-2-ethylphenyl)piperidin-4-yl)piperazin-1-yl)ethyl)-2-oxobenzo[d]oxazol-3(2H)-yl)piperidine-2,6-dione] | 1.5 nM | 75% |
| CCc1cc(Nc2ncc(Br)c(Nc3cnc4cc(F)ccc4c3P(C)(C)=O)n2)c(OC)cc1N1CCC(N2CCN(CCc3ccc4c(c3)oc(=O)n4C3CCC(=O)NC3=O)CC2)CC1 (stereo not shown) [Example 153, 3-(6-(2-(4-(1-(4-((5-bromo-4-((4-(dimethylphosphoryl)-7-fluoroquinolin-3-yl)amino)pyrimidin-2-yl)amino)-2-ethyl-5-methoxyphenyl)piperidin-4-yl)piperazin-1-yl)ethyl)-2-oxobenzo[d]oxazol-3(2H)-yl)piperidine-2,6-dione] | 0.8 nM | 77% |
| CCOc1cc(N2CCC(N3CCN(CCc4cccc5c4n(C)c(=O)n5C4CCC(=O)NC4=O)CC3)CC2)c(CC)cc1Nc1ncc(Br)c(Nc2cnc3ccccc3c2P(C)(C)=O)n1 (stereo not shown) [Example 140, 3-(4-(2-(4-(1-(4-((5-bromo-4-((4-(dimethylphosphoryl)quinolin-3-yl)amino)pyrimidin-2-yl)amino)-5-ethoxy-2-ethylphenyl)piperidin-4-yl)piperazin-1-yl)ethyl)-3-methyl-2-oxo-2,3-dihydro-1H-benzo[d]imidazol-1-yl)piperidine-2,6-dione] | 4.4 nM | 84% |
| CCc1cc(Nc2ncc(Br)c(Nc3cnc4cc(F)ccc4c3P(C)(C)=O)n2)c(OC)cc1N1CCC(N2CCN(CCc3cc(F)c(C4CCC(=O)NC4=O)c(F)c3)CC2)CC1 (stereo not shown) [Example 172, 3-(4-(2-(4-(1-(4-((5-bromo-4-((4-(dimethylphosphoryl)-7-fluoroquinolin-3-yl)amino)pyrimidin-2-yl)amino)-2-ethyl-5-methoxyphenyl)piperidin-4-yl)piperazin-1-yl)ethyl)-2,6-difluorophenyl)piperidine-2,6-dione] | 1.4 nM | 81% |
| CCc1cc(Nc2ncc(Br)c(Nc3cnc4c(F)cccc4c3P(C)(C)=O)n2)c(OC)cc1N1CCC(N2CCN(CCC3CCN(c4cc(F)c(C5CCC(=O)NC5=O)c(F)c4)CC3)CC2)CC1 (stereo not shown) [Example 165, 3-(4-(4-(2-(4-(1-(4-((5-bromo-4-((4-(dimethylphosphoryl)-8-fluoroquinolin-3-yl)amino)pyrimidin-2-yl)amino)-2-ethyl-5-methoxyphenyl)piperidin-4-yl)piperazin-1-yl)ethyl)piperidin-1-yl)-2,6-difluorophenyl)piperidine-2,6-dione] | 4.2 nM | 84% |
